Measurements as given in ChEMBL document CHEMBL3046521, “Synthesis and antitumor activity of (4-hydroxyphenyl)[5-substituted alkyl/aryl)-2-thioxo-1,3,4-thiadiazol-3-yl]methanone and [(3,4-disubstituted)-1,3-thiazol-2ylidene]-4-hydroxybenzohydrazide” (2011).

Key:
Type in all cases: functional
[1] = system: TK-10; assay: Cytotoxicity against Homo sapiens (human) TK10 cells after 48 hr by sulforhodamine B assay; settings: TK-10, 48 h
[2] = system: UACC-257; assay: Cytotoxicity against Homo sapiens (human) UACC257 cells after 48 hr by sulforhodamine B assay; settings: UACC-257, 48 h
[3] = system: KM12; assay: Cytotoxicity against Homo sapiens (human) KM12 cells after 48 hr by sulforhodamine B assay; settings: KM12, 48 h
[4] = system: SR; assay: Cytotoxicity against Homo sapiens (human) SR cells after 48 hr by sulforhodamine B assay
[5] = Cytotoxicity against Homo sapiens (human) NCI-ADR-RES cells after 48 hr by sulforhodamine B assay
[6] = system: OVCAR-8; assay: Cytotoxicity against Homo sapiens (human) OVCAR8 cells after 48 hr by sulforhodamine B assay; settings: OVCAR-8, 48 h
[7] = system: CAKI-1; assay: Cytotoxicity against Homo sapiens (human) Caki1 cells after 48 hr by sulforhodamine B assay; settings: CAKI-1, 48 h
[8] = system: MCF7; assay: Cytotoxicity against Homo sapiens (human) MCF7 cells after 48 hr by sulforhodamine B assay; settings: MCF7, 48 h
[9] = system: HCT-116; assay: Cytotoxicity against Homo sapiens (human) HCT116 cells after 48 hr by sulforhodamine B assay; settings: HCT-116, 48 h
[10] = system: M14; assay: Cytotoxicity against Homo sapiens (human) M14 cells after 48 hr by sulforhodamine B assay; settings: M14, 48 h
[11] = system: SF-268; assay: Cytotoxicity against Homo sapiens (human) SF268 cells after 48 hr by sulforhodamine B assay; settings: SF-268, 48 h
[12] = system: A549; assay: Cytotoxicity against Homo sapiens (human) A549 cells after 48 hr by sulforhodamine B assay; settings: A549, 48 h
[13] = system: OVCAR-4; assay: Cytotoxicity against Homo sapiens (human) OVCAR4 cells after 48 hr by sulforhodamine B assay; settings: OVCAR-4, 48 h
[14] = system: SF-539; assay: Cytotoxicity against Homo sapiens (human) SF539 cells after 48 hr by sulforhodamine B assay; settings: SF-539, 48 h
[15] = system: PC-3; assay: Cytotoxicity against Homo sapiens (human) PC3 cells after 48 hr by sulforhodamine B assay; settings: PC-3, 48 h
[16] = system: HCT-15; assay: Cytotoxicity against Homo sapiens (human) HCT15 cells after 48 hr by sulforhodamine B assay; settings: HCT-15, 48 h
[17] = system: LOX IMVI; assay: Cytotoxicity against Homo sapiens (human) LOXIMVI cells after 48 hr by sulforhodamine B assay
[18] = Cytotoxicity against Homo sapiens (human) […] cells after 48 hr by sulforhodamine B assay
[19] = system: HT-29; assay: Cytotoxicity against Homo sapiens (human) HT-29 cells after 48 hr by sulforhodamine B assay; settings: HT-29, 48 h
[20] = system: MOLT-4; assay: Cytotoxicity against Homo sapiens (human) MOLT4 cells after 48 hr by sulforhodamine B assay; settings: MOLT-4, 48 h
[21] = system: SF-295; assay: Cytotoxicity against Homo sapiens (human) SF295 cells after 48 hr by sulforhodamine B assay; settings: SF-295, 48 h
[22] = system: 786-0; assay: Cytotoxicity against Homo sapiens (human) 786-0 cells after 48 hr by sulforhodamine B assay; settings: 786-0, 48 h
[23] = system: SNB-19; assay: Cytotoxicity against Homo sapiens (human) SNB19 cells after 48 hr by sulforhodamine B assay; settings: SNB-19, 48 h
[24] = system: HOP-92; assay: Cytotoxicity against Homo sapiens (human) HOP92 cells after 48 hr by sulforhodamine B assay; settings: HOP-92, 48 h
[25] = system: MDA-MB-435; assay: Cytotoxicity against Homo sapiens (human) MDA-MB-435 cells after 48 hr by sulforhodamine B assay; settings: MDA-MB-435, 48 h
[26] = system: NCI-H322M; assay: Cytotoxicity against Homo sapiens (human) NCI-H322M cells after 48 hr by sulforhodamine B assay
[27] = system: UACC-62; assay: Cytotoxicity against Homo sapiens (human) UACC62 cells after 48 hr by sulforhodamine B assay; settings: UACC-62, 48 h
[28] = system: EKVX; assay: Cytotoxicity against Homo sapiens (human) EKVX cells after 48 hr by sulforhodamine B assay
[29] = system: SW-620; assay: Cytotoxicity against Homo sapiens (human) SW620 cells after 48 hr by sulforhodamine B assay; settings: SW-620, 48 h
[30] = system: SK-MEL-28; assay: Cytotoxicity against Homo sapiens (human) SK-MEL-28 cells after 48 hr by sulforhodamine B assay; settings: SK-MEL-28, 48 h
[31] = system: BT-549; assay: Cytotoxicity against Homo sapiens (human) BT549 cells after 48 hr by sulforhodamine B assay; settings: BT-549, 48 h

COc1ccc(-c2cs/c(=N\NC(=O)c3ccc(O)cc3)n2-c2ccc(OC)cc2OC)cc1
GI50 [1]: 13.5 µM
LC50 [1]: > 100 µM
TGI ([1]; read-out: pTGI (converted)): 75.9 µM
GI50 [2]: 15.1 µM
LC50 [2]: > 100 µM
TGI ([2]; read-out: pTGI (converted)): > 100 µM
GI50 [3]: 2.63 µM
LC50 [3]: 87.1 µM
TGI ([3]; read-out: pTGI (converted)): 8.51 µM
GI50 [4]: 2 µM
LC50 [4]: > 100 µM
TGI ([4]; read-out: pTGI): > 100 µM
GI50 [5]: 2.95 µM
LC50 [5]: > 100 µM
TGI ([5]; read-out: pTGI (converted)): 8.32 µM
GI50 [6]: 10.2 µM
LC50 [6]: > 100 µM
TGI ([6]; read-out: pTGI (converted)): > 100 µM
GI50 [7]: 3.31 µM
LC50 [7]: > 100 µM
TGI ([7]; read-out: pTGI (converted)): 52.5 µM
GI50 [8]: 3.72 µM
LC50 [8]: > 100 µM
TGI ([8]; read-out: pTGI (converted)): 28.8 µM
GI50 [9]: 5.13 µM
LC50 [9]: > 100 µM
TGI ([9]; read-out: pTGI (converted)): 28.2 µM
GI50 [10]: 5.5 µM
LC50 [10]: > 100 µM
TGI ([10]; read-out: pTGI (converted)): 27.5 µM
GI50 [11]: 5.75 µM
LC50 [11]: > 100 µM
TGI ([11]; read-out: pTGI (converted)): 60.3 µM
GI50 [12]: 6.03 µM
LC50 [12]: > 100 µM
TGI ([12]; read-out: pTGI (converted)): > 100 µM
GI50 [13]: 10.2 µM
LC50 [13]: > 100 µM
TGI ([13]; read-out: pTGI (converted)): > 100 µM
GI50 [14]: 5.13 µM
LC50 [14]: 63.1 µM
TGI ([14]; read-out: pTGI (converted)): 20.4 µM
GI50 [15]: 3.39 µM
LC50 [15]: > 100 µM
TGI ([15]; read-out: pTGI (converted)): > 100 µM
GI50 [16]: 3.55 µM
LC50 (concentration killing 50% of cells) [16]: > 100 µM
TGI ([16]; read-out: pTGI (converted)): > 100 µM
GI50 [17]: 3.8 µM
LC50 [17]: 85.1 µM
TGI ([17]; read-out: pTGI (converted)): 15.8 µM
GI50 [18]: 3.8 µM
LC50 [18]: > 100 µM
TGI ([18]; read-out: pTGI (converted)): > 100 µM
GI50 [19]: 3.63 µM
LC50 [19]: > 100 µM
TGI ([19]; read-out: pTGI (converted)): 17 µM
GI50 [20]: 1.2 µM
LC50 [20]: > 100 µM
TGI ([20]; read-out: pTGI (converted)): 23.4 µM
GI50 [21]: 2.82 µM
LC50 [21]: > 100 µM
TGI ([21]; read-out: pTGI (converted)): 9.77 µM
GI50 [22]: 4.07 µM
LC50 [22]: > 100 µM
TGI ([22]; read-out: pTGI (converted)): 26.3 µM
GI50 [23]: 10.7 µM
LC50 [23]: > 100 µM
TGI ([23]; read-out: pTGI (converted)): > 100 µM
GI50 [24]: 3.31 µM
LC50 [24]: > 100 µM
TGI ([24]; read-out: pTGI (converted)): 37.2 µM
GI50 [25]: 2.88 µM
LC50 [25]: > 100 µM
TGI ([25]; read-out: pTGI (converted)): 22.9 µM
GI50 [26]: 22.9 µM
LC50 [26]: > 100 µM
TGI ([26]; read-out: pTGI (converted)): > 100 µM
GI50 [27]: 4.47 µM
LC50 [27]: 85.1 µM
TGI ([27]; read-out: pTGI (converted)): 22.9 µM
GI50 [28]: 6.92 µM
LC50 [28]: > 100 µM
TGI ([28]; read-out: pTGI (converted)): > 100 µM
GI50 [29]: 4.37 µM
LC50 [29]: > 100 µM
TGI ([29]; read-out: pTGI (converted)): 43.7 µM
GI50 [30]: 7.24 µM
LC50 (concentration killing 50% of cells) [30]: > 100 µM
TGI ([30]; read-out: pTGI (converted)): 53.7 µM
GI50 [31]: 14.1 µM
LC50 [31]: > 100 µM
TGI ([31]; read-out: pTGI (converted)): 69.2 µM
